# Laboratory results taken from ChEMBL document CHEMBL1201862, “PubChem BioAssay data set” (2004).
# Active and inactive are the calls of the source.
# How the values were obtained:
# [1] = growth suppression of beta-catenin-knockout colon cells, dose response, cell-based, HCT116, human colon tumor (AID 1045); type: functional;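 further: HCT116 colon tumor cells with beta catenin knocked out; cells exposed to compound for 60 hours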
# [2] = target: Heat shock protein HSP 90-alpha (Homo sapiens, UniProt P07900); type: functional, organism-based
# [3] = growth suppression of PTEN-null colon cells, dose response, cell-based, HCT116 PTEN knockout (AID 1047); type: functional;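 further: HCT116 colon tumor cells with PTEN knocked out; cells exposed to compound for 60 hours before readout; potency for loss of cell viability measured by luminescence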
# Fatty acid synthase [4] = target: T1, Fatty acid synthase (Homo sapiens, UniProt P49327); assay: FAS thioesterase domain inhibitors, dose response, biochemical, kinetic fluorescence intensity (AID 624326); type: functional;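 further: rate of fluorescence rise from hydrolysis of a fluorogenic O-methyl fluorescein ester substrate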
# Fatty acid synthase [5] = target: T1, Fatty acid synthase; assay: FAS thioesterase domain inhibitors, dose response, biochemical, endpoint fluorescence intensity, uHTS hits (AID 624327); type: functional;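 further: fluorescence from hydrolysis of an O-methyl fluorescein acyl ester substrate by the enzyme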
# [6] = target: Luciferin 4-monooxygenase (Photinus pyralis, UniProt P08659); assay: firefly luciferase enzyme inhibitors, dose response, biochemical, luminescence (AID 1891)
# [7] = Luminescence Cell-Based Dose Confirmation HTS to Identify Inhibitors of Platelet Dense Granule Release. [Related pubchem assays: 1663 (Primary HTS), 1678 (Summary of Project)]; type: functional
# H4 = assay: Luminescence Cell-Based Dose Response HTS to Identify Activators of 5'UTR Stem-Loop Driven Prion Protein mRNA Translation in H4 Neuroglioblastoma Cells. [Related pubchem assays: 1829 (Project Summary), 1814 (Primary HTS)]; type: functional; conditions: Homo sapiens
# [8] = Luminescence Cell-Based Dose Confirmation HTS to Identify Activators of 5'UTR Stem-Loop Driven Alpha-Synuclein mRNA Translation in H4 Neuroglioblastoma Cells. [Related pubchem assays: 1829 (Project Summary), 1814 (Primary HTS)]; type: functional
# [9] = Luminescence Cell-Based Dose Response HTS to Identify Activators of Luciferase Translation or Activity in H4 […] Cells. [Related pubchem assays: 1829 (Project Summary), 1814 (Primary HTS)]; type: functional
# [10] = target: FAD-linked sulfhydryl oxidase ALR (Homo sapiens, UniProt P55789); assay: inhibitors of human ALR sulfhydryl oxidase, dose response, biochemical, H2O2 detection, luminescence, cherry-pick (AID 493248)
# Cytochrome P450 3A4 = Cytochrome P450 3A4 (Homo sapiens, UniProt P08684);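 further: CYP3A4 tested as one member of a cytochrome P450 panel screen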
# Cytochrome P450 2C9 = Cytochrome P450 2C9 (Homo sapiens, UniProt P11712)
# Cytochrome P450 2C19 = Cytochrome P450 2C19 (Homo sapiens, UniProt P33261); assay: Cytochrome panel assay with activity outcomes. Panel member name: p450-cyp2c19 Compounds with AC50 equal or less than 10 uM are considered active; type: functional; conditions: read-out: AC50
# Cytochrome P450 1A2 = target: T2, Cytochrome P450 1A2 (Homo sapiens, UniProt P05177);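 further: PubChem cytochrome P450 panel assay, CYP1A2 panel member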
# T2 sequence (P05177 whole entry): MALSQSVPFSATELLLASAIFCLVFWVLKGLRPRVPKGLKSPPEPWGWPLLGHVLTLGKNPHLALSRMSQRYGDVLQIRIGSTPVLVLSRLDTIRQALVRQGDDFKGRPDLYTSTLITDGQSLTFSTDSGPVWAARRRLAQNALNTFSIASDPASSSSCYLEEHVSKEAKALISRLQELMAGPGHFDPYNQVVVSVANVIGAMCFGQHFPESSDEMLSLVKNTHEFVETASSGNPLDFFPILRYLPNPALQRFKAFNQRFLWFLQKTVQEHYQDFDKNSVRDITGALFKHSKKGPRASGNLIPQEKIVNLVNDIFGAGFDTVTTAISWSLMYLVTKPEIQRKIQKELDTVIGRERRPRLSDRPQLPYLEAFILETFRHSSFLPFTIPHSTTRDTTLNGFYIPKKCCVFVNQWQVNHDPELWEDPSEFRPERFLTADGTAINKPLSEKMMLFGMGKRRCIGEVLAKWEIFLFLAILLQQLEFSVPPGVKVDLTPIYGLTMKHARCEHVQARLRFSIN
# [11] = NIH-3T3 fibroblast cytotoxicity, dose response, cytotoxicity control, cell-based, fluorescence, Alamar Blue, secondary assay (AID 2327); type: functional;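 further: NIH-3T3 mouse fibroblasts cultured with fluconazole at 8 µg/mL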
# BJ [12] = assay: cytotoxicity toward BJ-TERT fibroblasts, dose response, cell-based, RAS-independent, luminescence (AID 1933); type: functional; conditions: Homo sapiens
# [13] = cytotoxicity toward DRD oncogenic fibroblasts, dose response, cell-based, non-viral oncogenic, luminescence (AID 1934); type: functional; conditions: Homo sapiens
# BJ [14] = assay: cytotoxicity toward BJ-TERT-LT-ST fibroblasts, dose response, cell-based, RAS-independent, luminescence (AID 1935); type: functional; conditions: Homo sapiens;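 further: BJ fibroblasts immortalized with TERT plus LT and ST oncogenes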
# BJ [15] = assay: cells; type: functional, cell-based; conditions: Homo sapiens
# [16] = inhibitors of intracellular T. cruzi replication, confirmation, NIH3T3 host cells, beta-gal luminescence (AID 2044); type: functional, cell-based;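 further: intracellular parasites grown in NIH/3T3 mouse fibroblasts as host cells; luminescent beta-galactosidase reporter signal from transgenic T. cruzi replicating inside host cells; inhibitors lower the luminescence signal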
# [17] = cytotoxicity toward NIH3T3 fibroblasts, dose response, counter-screen, cell-based, ATP luminescence, mouse fibroblasts (AID 2010); type: functional;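 further: cells exposed to compound for about 90 hours before reading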
# T1 sequence (P49327 whole entry, the tested form may be a part): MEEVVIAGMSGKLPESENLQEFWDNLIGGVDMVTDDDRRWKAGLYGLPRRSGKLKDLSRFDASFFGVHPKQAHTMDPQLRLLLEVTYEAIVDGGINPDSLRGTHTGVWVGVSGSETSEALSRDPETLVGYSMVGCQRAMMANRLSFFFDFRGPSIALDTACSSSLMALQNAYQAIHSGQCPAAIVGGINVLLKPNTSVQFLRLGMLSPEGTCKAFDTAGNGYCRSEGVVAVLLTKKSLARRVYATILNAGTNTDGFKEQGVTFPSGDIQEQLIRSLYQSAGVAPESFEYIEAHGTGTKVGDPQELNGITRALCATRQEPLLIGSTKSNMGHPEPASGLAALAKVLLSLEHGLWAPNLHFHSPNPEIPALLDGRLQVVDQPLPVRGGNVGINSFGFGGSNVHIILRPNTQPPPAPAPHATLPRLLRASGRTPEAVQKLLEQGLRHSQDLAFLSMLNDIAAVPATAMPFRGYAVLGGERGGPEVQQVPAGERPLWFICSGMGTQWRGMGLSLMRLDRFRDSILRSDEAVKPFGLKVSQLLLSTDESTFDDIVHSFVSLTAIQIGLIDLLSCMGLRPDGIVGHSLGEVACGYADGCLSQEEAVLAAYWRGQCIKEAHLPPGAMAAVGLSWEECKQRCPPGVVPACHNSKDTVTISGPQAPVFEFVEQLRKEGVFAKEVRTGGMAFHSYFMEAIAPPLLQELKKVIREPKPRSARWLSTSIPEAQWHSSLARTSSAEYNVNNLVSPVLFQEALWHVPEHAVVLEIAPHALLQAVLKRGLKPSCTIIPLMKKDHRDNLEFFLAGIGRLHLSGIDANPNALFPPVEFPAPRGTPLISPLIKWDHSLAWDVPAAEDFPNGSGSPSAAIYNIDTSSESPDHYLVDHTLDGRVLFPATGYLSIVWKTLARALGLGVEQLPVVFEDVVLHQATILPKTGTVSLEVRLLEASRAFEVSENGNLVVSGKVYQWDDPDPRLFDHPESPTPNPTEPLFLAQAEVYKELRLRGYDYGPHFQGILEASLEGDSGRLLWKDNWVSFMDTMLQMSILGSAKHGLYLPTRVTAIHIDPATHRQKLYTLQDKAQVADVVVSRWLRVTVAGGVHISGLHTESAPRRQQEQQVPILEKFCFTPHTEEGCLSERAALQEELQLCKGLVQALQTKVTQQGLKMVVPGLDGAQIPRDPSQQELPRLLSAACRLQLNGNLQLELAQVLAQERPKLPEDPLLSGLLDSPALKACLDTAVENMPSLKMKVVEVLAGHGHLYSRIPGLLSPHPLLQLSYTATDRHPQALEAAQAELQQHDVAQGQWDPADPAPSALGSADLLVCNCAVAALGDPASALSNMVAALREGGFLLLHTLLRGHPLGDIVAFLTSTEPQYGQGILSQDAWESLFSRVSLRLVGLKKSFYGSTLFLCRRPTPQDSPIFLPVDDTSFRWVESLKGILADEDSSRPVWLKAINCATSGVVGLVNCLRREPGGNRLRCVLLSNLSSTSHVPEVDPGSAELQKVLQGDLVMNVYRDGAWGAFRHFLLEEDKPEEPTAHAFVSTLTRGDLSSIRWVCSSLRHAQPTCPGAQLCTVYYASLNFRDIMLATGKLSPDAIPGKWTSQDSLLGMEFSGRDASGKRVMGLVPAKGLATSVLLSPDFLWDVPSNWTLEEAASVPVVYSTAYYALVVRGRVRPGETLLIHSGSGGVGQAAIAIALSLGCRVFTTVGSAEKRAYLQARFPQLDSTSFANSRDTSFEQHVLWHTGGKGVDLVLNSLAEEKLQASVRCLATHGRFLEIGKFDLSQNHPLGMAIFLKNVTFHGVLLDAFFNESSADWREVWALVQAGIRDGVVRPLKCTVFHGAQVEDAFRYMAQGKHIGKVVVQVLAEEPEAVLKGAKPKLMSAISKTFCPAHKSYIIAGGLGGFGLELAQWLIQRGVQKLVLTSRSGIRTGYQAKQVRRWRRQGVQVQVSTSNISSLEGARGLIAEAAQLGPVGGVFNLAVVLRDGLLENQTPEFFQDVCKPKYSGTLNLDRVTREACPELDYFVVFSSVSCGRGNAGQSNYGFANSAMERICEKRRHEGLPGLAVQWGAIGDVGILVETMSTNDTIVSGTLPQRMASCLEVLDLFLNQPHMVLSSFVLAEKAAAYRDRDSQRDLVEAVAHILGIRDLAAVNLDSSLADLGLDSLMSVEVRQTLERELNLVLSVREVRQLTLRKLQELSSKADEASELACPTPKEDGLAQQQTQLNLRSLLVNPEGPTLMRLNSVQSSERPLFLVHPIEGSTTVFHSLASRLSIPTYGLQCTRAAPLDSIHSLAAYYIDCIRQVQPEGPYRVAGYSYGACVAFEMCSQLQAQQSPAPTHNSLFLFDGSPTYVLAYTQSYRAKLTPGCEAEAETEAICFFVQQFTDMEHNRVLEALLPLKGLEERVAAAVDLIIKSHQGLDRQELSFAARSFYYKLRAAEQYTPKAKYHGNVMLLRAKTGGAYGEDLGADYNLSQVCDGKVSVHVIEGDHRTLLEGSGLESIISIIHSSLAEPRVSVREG
# FAD-linked sulfhydryl oxidase ALR, sequence (P55789 whole entry): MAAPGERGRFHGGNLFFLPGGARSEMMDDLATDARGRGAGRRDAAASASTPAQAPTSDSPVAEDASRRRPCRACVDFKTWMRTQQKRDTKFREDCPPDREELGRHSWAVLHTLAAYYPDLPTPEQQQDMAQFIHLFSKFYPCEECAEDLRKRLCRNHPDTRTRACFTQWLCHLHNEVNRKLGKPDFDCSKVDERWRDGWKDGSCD
# Luciferin 4-monooxygenase, sequence (P08659 whole entry): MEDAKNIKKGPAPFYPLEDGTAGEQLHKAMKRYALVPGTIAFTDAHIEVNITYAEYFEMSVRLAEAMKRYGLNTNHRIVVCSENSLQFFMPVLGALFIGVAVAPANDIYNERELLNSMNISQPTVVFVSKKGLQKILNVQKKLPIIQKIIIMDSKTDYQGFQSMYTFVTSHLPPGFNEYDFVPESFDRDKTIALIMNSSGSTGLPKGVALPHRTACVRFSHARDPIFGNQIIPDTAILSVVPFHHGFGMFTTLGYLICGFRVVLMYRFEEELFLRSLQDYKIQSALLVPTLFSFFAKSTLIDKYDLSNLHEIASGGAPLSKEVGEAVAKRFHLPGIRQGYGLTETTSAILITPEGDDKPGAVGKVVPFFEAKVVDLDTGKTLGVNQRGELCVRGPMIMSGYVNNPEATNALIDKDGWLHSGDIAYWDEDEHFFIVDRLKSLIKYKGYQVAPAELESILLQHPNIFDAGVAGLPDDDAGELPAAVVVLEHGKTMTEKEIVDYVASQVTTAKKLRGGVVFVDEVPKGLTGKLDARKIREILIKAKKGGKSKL
# Cytochrome P450 2C9, sequence (P11712 whole entry): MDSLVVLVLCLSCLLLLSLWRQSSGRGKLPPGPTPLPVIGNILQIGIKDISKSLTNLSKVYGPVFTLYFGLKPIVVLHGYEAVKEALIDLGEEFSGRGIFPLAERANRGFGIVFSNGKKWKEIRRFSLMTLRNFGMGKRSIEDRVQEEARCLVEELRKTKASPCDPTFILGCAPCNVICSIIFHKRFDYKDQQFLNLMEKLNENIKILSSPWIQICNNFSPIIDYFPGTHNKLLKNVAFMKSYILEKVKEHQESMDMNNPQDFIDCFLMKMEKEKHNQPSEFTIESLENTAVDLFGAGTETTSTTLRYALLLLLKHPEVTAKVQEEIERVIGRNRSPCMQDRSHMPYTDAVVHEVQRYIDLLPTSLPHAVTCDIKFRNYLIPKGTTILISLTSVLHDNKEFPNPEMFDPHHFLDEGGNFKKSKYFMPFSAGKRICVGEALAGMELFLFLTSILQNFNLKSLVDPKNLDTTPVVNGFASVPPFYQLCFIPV
# Cytochrome P450 3A4, sequence (P08684 whole entry): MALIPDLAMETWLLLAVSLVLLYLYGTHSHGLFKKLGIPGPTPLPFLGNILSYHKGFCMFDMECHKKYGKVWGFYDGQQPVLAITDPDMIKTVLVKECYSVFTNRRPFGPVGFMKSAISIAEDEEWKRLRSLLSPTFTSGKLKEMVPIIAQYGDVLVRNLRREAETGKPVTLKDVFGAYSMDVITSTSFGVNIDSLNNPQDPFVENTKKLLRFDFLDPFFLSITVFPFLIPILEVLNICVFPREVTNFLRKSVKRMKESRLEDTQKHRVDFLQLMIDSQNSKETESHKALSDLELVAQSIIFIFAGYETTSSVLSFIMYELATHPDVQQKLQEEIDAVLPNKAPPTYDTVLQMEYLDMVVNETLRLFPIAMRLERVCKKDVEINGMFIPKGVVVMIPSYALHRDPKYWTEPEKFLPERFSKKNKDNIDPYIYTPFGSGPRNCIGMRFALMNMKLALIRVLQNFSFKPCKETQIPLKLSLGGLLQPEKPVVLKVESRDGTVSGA
# Cytochrome P450 2C19, sequence (P33261 whole entry): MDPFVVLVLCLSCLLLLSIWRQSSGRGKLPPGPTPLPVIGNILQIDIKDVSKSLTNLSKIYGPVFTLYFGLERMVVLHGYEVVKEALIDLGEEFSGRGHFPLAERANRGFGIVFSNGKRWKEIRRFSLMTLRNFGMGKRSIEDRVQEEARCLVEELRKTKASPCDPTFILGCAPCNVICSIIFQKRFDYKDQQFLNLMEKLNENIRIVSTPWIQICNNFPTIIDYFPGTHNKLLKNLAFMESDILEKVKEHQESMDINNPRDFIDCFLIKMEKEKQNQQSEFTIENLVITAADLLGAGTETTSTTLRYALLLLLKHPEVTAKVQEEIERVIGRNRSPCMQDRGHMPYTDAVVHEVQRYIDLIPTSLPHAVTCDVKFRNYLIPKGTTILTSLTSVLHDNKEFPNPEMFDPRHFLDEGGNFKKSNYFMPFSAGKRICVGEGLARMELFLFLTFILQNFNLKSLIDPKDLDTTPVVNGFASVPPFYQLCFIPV
smiles,measurement,setting,value
CCN1C/C(=C\c2cccc([N+](=O)[O-])c2)C(=O)/C(=C/c2cccc([N+](=O)[O-])c2)C1,EC50,[1],0.187 µM (active)
same,AC50,[2],8.11 µM (active)
same,EC50,[3],0.117 µM (active)
O=S(=O)(Nc1ccc2c(c1)OCCO2)c1ccc2oc3ccccc3c2c1,IC50,Fatty acid synthase [4],7.42 µM (active)
same,IC50,Fatty acid synthase [5],8 µM (active)
CC(NC(=O)c1ccc([N+](=O)[O-])cc1Cl)C1CC2CCC1C2 (configuration not stated),IC50,Fatty acid synthase [4],11.1 µM (active)
same,IC50,Fatty acid synthase [5],9.39 µM (active)
O=C(Nc1ccccc1)c1cccc(N2CCCC2=O)c1,EC50,[6],> 112 µM (not active)
same,EC50,[7],45.5 µM (active)
Cc1nc2ccccc2[nH]c(=O)c1=NNc1ccccc1,EC50,H4,19 µM (active)
same,EC50,[8],24.1 µM (active)
same,EC50,[9],> 120 µM (not active)
Cc1ccc(OCCC(=O)OCc2csc(CC(=O)Nc3ccccc3C)n2)cc1,EC50,[6],> 112 µM (not active)
same,EC50,[7],> 112 µM (not active)
O=C(Cn1cc([N+](=O)[O-])cn1)N1CCc2ccccc2C1,IC50,Fatty acid synthase [4],7.62 µM (active)
same,IC50,Fatty acid synthase [5],11.1 µM (active)
COc1cccc(C(=O)Nc2ccccc2N2CCCC2)c1,AC50,[10],1.54 µM (active)
CCN(CC)c1ccc(NC(=O)C2CCCN(S(=O)(=O)c3cccnc3)C2)c(C)c1 (configuration not stated),AC50,[10],2.3 µM (active)
COC(=O)c1ccc(CSc2nc3cc(C)ccc3[nH]2)o1,AC50,[10],2.71 µM (active)
Cc1ccc(C(=O)NC(=S)Nc2cc(-c3nc4ccccc4s3)ccc2C)cc1,EC50,[1],22 µM (active)
same,AC50,Cytochrome P450 3A4,10 µM (inconclusive)
same,EC50,[3],26.9 µM (active)
same,AC50,Cytochrome P450 2C9,1.78 µM (inconclusive)
CN1CCN(C(=O)c2ccc(COc3ccc(C(C)(C)C)cc3)o2)CC1,EC50,H4,35.2 µM (active)
same,EC50,[8],4.82 µM (active)
same,AC50,Cytochrome P450 2C19,25.1 µM (inconclusive)
same,EC50,[9],0.148 µM (inconclusive)
same,AC50,Cytochrome P450 1A2,12.6 µM (inconclusive)
same,AC50,Cytochrome P450 2C9,31.6 µM (inconclusive)
c1ccc(CSc2nnc(Cc3ccccc3)o2)cc1,EC50,H4,> 120 µM (not active)
same,EC50,[8],14.4 µM (active)
same,EC50,[9],16.8 µM (active)
O=C(NCc1ccc(C(F)(F)F)cc1)C1CC(c2c(Cl)cccc2Cl)=NO1 (configuration not stated),IC50,Fatty acid synthase [4],9.63 µM (active)
same,IC50,Fatty acid synthase [5],10.3 µM (active)
COc1ccc2c(c1)NP(=S)(Oc1ccccc1)N2 (configuration not stated),AC50,[10],2.02 µM (active)
CC1CC(Nc2ccccc2)c2ccccc2N1C(=O)c1ccco1 (configuration not stated),AC50,[10],21.1 µM (active)
Cc1cc(/C=C2\SC(N)=NC2=O)c(C)n1-c1ccccc1,EC50,H4,> 120 µM (not active)
same,EC50,[8],0.167 µM (active)
same,EC50,[9],0.143 µM (active)
COc1ccc(N2CCN(C(CNS(C)(=O)=O)c3ccco3)CC2)cc1 (configuration not stated),AC50,[10],4.67 µM (active)
O=C1C2CCN(CC2)C1Cc1ccc(OCCOc2ccccc2)cc1 (configuration not stated),EC50,[11],30.6 µM (active)
same,EC50,BJ [12],> 150 µM (not active)
same,EC50,[13],> 150 µM (not active)
same,EC50,BJ [14],> 150 µM (not active)
same,EC50,BJ [15],> 150 µM (not active)
O=C(OCC(=O)N1CCN(C(=O)c2ccco2)CC1)c1cc(-c2ccccc2)nc2ccccc12,AC50,[2],4.24 µM (active)
COc1cccc(C(c2sc3ncnn3c2O)N2CCN(C(=O)c3ccco3)CC2)c1 (configuration not stated),EC50,[6],> 112 µM (not active)
same,EC50,[7],> 112 µM (not active)
CN(C)c1oc(-c2ccco2)nc1C#N,EC50,[6],> 112 µM (not active)
same,EC50,[7],> 112 µM (not active)
CCN(CC)c1ccc(NC(=O)c2nc3nc(C)cc(C(F)F)n3n2)cc1,AC50,[10],1.51 µM (active)
Cn1cc(S(=O)(=O)N2CCOCC2)cc1C(=O)Nc1cccc(Cl)c1,EC50,[6],> 112 µM (not active)
same,EC50,[7],> 112 µM (not active)
COc1cccc(NC(=O)c2ccc3c(c2)OCCO3)c1,EC50,BJ [12],20.9 µM (active)
same,EC50,[6],4.7 µM (active)
same,EC50,[7],3.52 µM (active)
same,EC50,[13],15.7 µM (active)
same,EC50,BJ [14],> 150 µM (inconclusive)
same,EC50,BJ [15],18.2 µM (active)
O=S(=O)(c1ccc(-c2csc(-c3cccnc3)n2)cc1)N1CCOCC1,IC50,Fatty acid synthase [4],4.92 µM (active)
CCOC(=O)c1ccc(Nc2nnc(C)c3ccccc23)cc1,EC50,H4,16.9 µM (active)
same,EC50,[8],14.4 µM (active)
same,EC50,[9],18.6 µM (active)
Brc1ccc2nc(-c3cccs3)c(NCC3CCCO3)n2c1 (configuration not stated),EC50,H4,17.5 µM (active)
same,EC50,[8],18.9 µM (active)
same,EC50,[9],9.6 µM (active)
COc1ccc(Oc2ccc(/C=C/C(=O)c3ccc(O)cc3)cc2[N+](=O)[O-])cc1,EC50,[1],2.14 µM (active)
same,EC50,[3],2.53 µM (active)
O=C(NCC(c1cccnc1)N1CCN(c2ccccc2)CC1)c1ccco1 (configuration not stated),AC50,[10],3.08 µM (active)
same,EC50,[16],0.998 µM (active)
same,EC50,[17],> 60 µM (not active)
COc1ccc([N+](=O)[O-])cc1NC(=O)COC(=O)/C=C/c1ccco1,IC50,Fatty acid synthase [4],8.49 µM (active)
same,IC50,Fatty acid synthase [5],5.11 µM (active)
O=C(COC(=O)c1cc([N+](=O)[O-])ccc1N1CCOCC1)Nc1ccccc1OC(F)F,IC50,Fatty acid synthase [4],5.1 µM (active)
same,IC50,Fatty acid synthase [5],4.73 µM (active)
Fc1cc(Br)ccc1N=C(S)NCCc1ccccc1,EC50,H4,27.5 µM (active)
same,EC50,[8],15.9 µM (active)
same,EC50,[9],21.3 µM (active)
Nc1ccc(CCc2ccc(N)cc2)cc1,AC50,[10],1.91 µM (active)
O=C(Nc1ccc(C(F)(F)F)cc1)c1cccc(-n2cnnn2)c1,IC50,Fatty acid synthase [4],5.97 µM (active)
same,IC50,Fatty acid synthase [5],11.1 µM (active)
O=C(O)c1cc(O)ccc1NC(=O)c1cccc2ccccc12,AC50,[10],3.41 µM (active)
O=C(NCCC(=O)N(CCc1ccccc1)Cc1ccccc1)c1ccc([N+](=O)[O-])cc1,IC50,Fatty acid synthase [4],8.92 µM (active)
same,IC50,Fatty acid synthase [5],8.21 µM (active)
Cc1nn(-c2ccc([N+](=O)[O-])cc2)c(O)c1/C=N/CCN1CCN(C(=O)c2ccccc2F)CC1,AC50,[2],5.72 µM (active)
OCCSc1nncn1/N=C/c1c[nH]c2ccccc12,EC50,[6],> 112 µM (not active)
same,EC50,[7],> 112 µM (not active)
O=C1N=C(c2ccccc2)N(c2ccccc2)C(=O)/C1=C(/O)c1ccccc1,EC50,H4,> 120 µM (not active)
same,EC50,[8],19.2 µM (active)
same,EC50,[9],> 120 µM (not active)
OC(CCCN1CCC(O)(c2ccc(Cl)cc2)CC1)c1ccc(F)cc1 (configuration not stated) [HYDROXYHALOPERIDOL],EC50,[1],28.4 µM (active)
same,EC50,[3],29.3 µM (active)
